Test results published in patent US10537541B2, “Treatment of focal segmental glomerular sclerosis (FSGS) using therapeutically effective oral doses of 10-nitro-9(E)-octadec-9-enoic acid” (Complexa, Inc., priority 2015, dated 2020).
“Also recorded” adds a separate entry of the source.

How the values were obtained:
CYP450 3A4 = CYP450 3A4 (Homo sapiens, UniProt P08684); test: In vitro CYP450 evaluation; assay type: in vitro ADME
healthy male subjects = test: Pharmacokinetic interaction study in healthy males: safety and tolerability; assay type: in vivo, human; conditions: healthy males
Protocol: Safety and tolerability was evaluated throughout the study. The timing of discharge was determined by the Investigator or designee based on safety and tolerability assessment. On dosing days, subjects remained in the research unit for a minimum of 1 h after dosing prior to discharge. On Day 4, on the first day of 10-nitro-9(E)-octadec-9-enoic acid dosing, subjects remained in the unit for 4 to 6 h after dosing prior to discharge to assess safety and tolerability.
Safety and PK assessments were evaluated throughout the study. During the in-house portion of the study, urine was collected over the 24-h period on Day 2 and Day 12.
Safety was evaluated by physical examinations; adverse events (AEs); vital signs (blood pressure, heart rate, respiratory rate); clinical laboratory values (hematology, biochemistry, and urinalysis), specifically, serum Mg and CPK and electrocardiograms (ECGs).
Triplicate ECGs were obtained just prior to the start of dosing on Day 1 and single ECGs were obtained at all other time points. The average of the 3 ECG interval measurements at the pre-dose time point was considered as baseline. All 12-Lead ECGs were obtained after the subject has rested in a fully supine position for at least 10 minutes. There were no clinically significant abnormalities reported on any electrocardiogram (ECG) parameter. There were no QT/QTcF interval prolongations observed during the study.

[1] = tested on: rat model of renal ischemia/reperfusion; test: Rat model of renal ischemia/reperfusion (acute kidney injury); assay type: in vivo; conditions: rats
Protocol: Prevention of ischemic reperfusion injury: Studies were performed to test the effectiveness and the dose/exposure-response relationship of 10-nitro-9(E)-octadec-9-enoic acid in reducing acute kidney injury in a rat model of renal ischemia/reperfusion when administered prior to the insult. A well-established and reproducible rat model of contrast-induced nephropathy was not available. Because ischemic/reperfusion injury is a facet of contrast-induced nephropathy, it was considered a reasonable alternative. In this model, the renal arteries of the rat were clamped for 35 min, followed by reperfusion. Serum creatinine was measured daily for 72 hours. The animals were then sacrificed for tissue and terminal plasma. 10-nitro-9(E)-octadec-9-enoic acid was administered over 15 min intravenously at various doses at one hour prior to the injury. […]
10-nitro-9(E)-octadec-9-enoic acid (2.5, 12.5, and 25 mg/kg) was administered 1 hr prior to the ischemic event. Plasma samples were taken at 0, 24, 48, and 72 hr following the ischemic event, and serum creatinine levels were measured in batches using mass spectrometry to achieve precision in the results.

obese male subjects = test: Multiple ascending dose study in obese males: safety and tolerability; assay type: in vivo, human; conditions: for GI adverse events, number (percentage) of subjects / General Disorders adverse events, number (percentage) of subjects / Muscle and CT disorders adverse events, number (percentage) of subjects / Nervous System adverse events, number (percentage) of subjects / Skin and SQ disorders adverse events, number (percentage) of subjects: n = 10
From the text: The primary endpoints of this study included safety and tolerability, pharmacokinetics, and biomarkers. The safety and tolerability included physical examinations, adverse event (AE) reporting, vital signs (blood pressure, heart rate, respiratory rate), clinical laboratory values (hematology, biochemistry, and urinalysis) including serum magnesium and creatine phosphokinase (CPK), 12-lead electrocardiograms (ECGs) for safety assessments and QTcF measured on ECGs extracted from cardiac Holter monitoring. The pharmacokinetic measurements included maximum observed plasma drug concentration (Cmax), time to maximum plasma drug concentration (Tmax), terminal phase half-life (t½), area under the plasma drug concentration versus time curve (AUC0-last, AUC0-∞), clearance (CL/F), volume of distribution (Vd/F) and terminal elimination rate constant (λz).
This was a single-center, randomized, double-blind, placebo-controlled study of sequential multiple ascending doses of oral CXA-10 in obese male subjects. Eligible subjects included obese males age 19 to 57 years and BMI 27.0 to 39.5 kg/m^2. CXA-10 and placebo were provided as solutions in hard shell capsules. Three (3) cohorts of subjects were dosed once daily with CXA-10 for 14 days. The doses administered in this study were 25, 150 and 450 mg. Subjects enrolled in the highest dose level (450 mg) were administered 600 mg on day 1 then 450 mg for 13 days. This cohort (cohort 3) was given the option to receive an additional 450 mg dose on day 15 with a high fat (50%) breakfast.
Each cohort of subjects was randomized to receive CXA-10 (10 subjects) or placebo (4 or 5 subjects). Safety, pharmacokinetic (PK) and pharmacodynamic (PD) assessments were evaluated throughout the study. The last study visit occurred on Day 28. All subjects remained in the unit during the treatment period and were discharged approximately 24 hours after the last dose was administered. Food restrictions were incorporated to minimize variability in biomarker evaluation and body weight.
Subjects remained at the unit until discharge on Day 15 after assessments were completed and reviewed. […] They remained in the unit until Day 16 (24 h after last dose on Day 15) before being discharged from the unit. The additional procedures on Day 15 and Day 16 were optional for subjects in cohort 3.
Safety and tolerability was evaluated throughout the study. Continuous Holter monitoring was performed on Days −1 and on Day 14 in all three cohorts. Continuous Holter monitoring could also be performed at highest dose cohort on an additional day between Days 2 and 4. The decision to conduct Holter monitoring and the actual day of the additional monitoring was determined based on emerging data.

[2] = Cohort 1, 25 mg once daily 14 days
[3] = Cohort 2, 150 mg once daily 14 days
[4] = Cohort 3, 450 mg once daily (600 mg on day 1)
[5] = obese males, 25-450 mg once daily

Chain of CYP450 3A4 (P08684 whole entry): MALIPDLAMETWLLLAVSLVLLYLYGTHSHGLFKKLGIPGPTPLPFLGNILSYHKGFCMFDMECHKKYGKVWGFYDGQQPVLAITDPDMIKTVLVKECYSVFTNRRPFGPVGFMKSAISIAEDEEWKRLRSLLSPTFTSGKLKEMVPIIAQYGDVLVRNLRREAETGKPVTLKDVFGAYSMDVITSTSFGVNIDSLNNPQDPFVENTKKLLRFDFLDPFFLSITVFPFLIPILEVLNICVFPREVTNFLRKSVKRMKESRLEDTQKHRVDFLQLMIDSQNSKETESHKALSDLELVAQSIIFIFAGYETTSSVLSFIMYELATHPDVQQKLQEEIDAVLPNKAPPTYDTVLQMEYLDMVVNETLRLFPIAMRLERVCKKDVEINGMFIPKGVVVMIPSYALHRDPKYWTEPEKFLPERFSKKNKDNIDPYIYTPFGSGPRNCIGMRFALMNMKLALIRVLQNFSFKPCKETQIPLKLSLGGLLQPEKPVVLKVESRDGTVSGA

IC50 (CYP450 3A4): > 33 µM
Compound: CCCCCCCC/C(=C\CCCCCCCC(=O)O)[N+](=O)[O-] [CXA-10, 10-nitro-9(E)-octadec-9-enoic acid]
GI AEs related to 10-nitro-9(E)-octadec-9-enoic acid (healthy male subjects; 150 mg daily with food): not observed
serum creatinine levels (healthy male subjects; 150 mg daily): no changes
24-hour urine creatinine excretion measurements (healthy male subjects; 150 mg daily, Day 2 versus Day 12): nor any relevant changes
renal structural injury (periodic acid-Schiff staining, blinded scoring) ([1]; 12.5 mg/kg intravenously 1 hr prior to I/R injury): alleviation of injury; also recorded: preserved normal renal structure
serum creatinine following ischemia ([1]; 12.5 mg/kg intravenously 1 hr prior to ischemic event, 24 hr, p<0.01 at 24 hr only): statistically significant decrease; also recorded: significantly lowered
HBG, HCT and RBC concentration during treatment compared to placebo treated subjects (obese male subjects; 450 mg): slight decrease
GI related AEs: subjects with nausea (obese male subjects; Cohort 1 (25 mg)): 1 subject had nausea subjects
GI adverse events, number (percentage) of subjects (obese male subjects; [2]): 2 (20%)
General Disorders adverse events, number (percentage) of subjects (obese male subjects; [2]): 1 (10%)
Muscle and CT disorders adverse events, number (percentage) of subjects (obese male subjects; [2]): 2 (20%)
Nervous System adverse events, number (percentage) of subjects (obese male subjects; [2]): 0 (0%)
Skin and SQ disorders adverse events, number (percentage) of subjects (obese male subjects; [2]): 2 (20%)
GI related AEs: subjects with diarrhea (obese male subjects; Cohort 2 (150 mg)): 5 subjects had diarrhea: 1 subject had diarrhea ~2 hr
GI adverse events, number (percentage) of subjects (obese male subjects; [3]): 5 (50%)
General Disorders adverse events, number (percentage) of subjects (obese male subjects; [3]): 0 (0%)
Muscle and CT disorders adverse events, number (percentage) of subjects (obese male subjects; [3]): 0 (0%)
Nervous System adverse events, number (percentage) of subjects (obese male subjects; [3]): 1 (10%)
Skin and SQ disorders adverse events, number (percentage) of subjects (obese male subjects; [3]): 0 (0%)
GI related AEs: subjects with diarrhea (obese male subjects; Cohort 3 (450 mg w food)): 3 subjects
GI related AEs: subjects with nausea (obese male subjects; Cohort 3 (450 mg w food)): 1 subjects
GI related AEs: subjects with diarrhea (obese male subjects; Cohort 3 (450 mg)): 9 subjects
GI related AEs: subjects with nausea (obese male subjects; Cohort 3 (450 mg)): 4 subjects
GI adverse events, number (percentage) of subjects (obese male subjects; [4]): 9 (90%)
General Disorders adverse events, number (percentage) of subjects (obese male subjects; [4]): 3 (30%)
Muscle and CT disorders adverse events, number (percentage) of subjects (obese male subjects; [4]): 2 (20%)
Nervous System adverse events, number (percentage) of subjects (obese male subjects; [4]): 4 (40%)
Skin and SQ disorders adverse events, number (percentage) of subjects (obese male subjects; [4]): 1 (10%)
CPK (muscle enzyme) or magnesium serum levels (obese male subjects; [5]): no abnormalities
QTc interval (routine ECG after dosing for 15 days; ECG extraction from continuous 24-hour Holter monitoring) (obese male subjects; [5]): no prolongation of QTc interval
clinical laboratory, vital signs or ECG evaluations (obese male subjects; [5]): no clinically significant findings
time to resolution of diarrhea (obese male subjects; obese males, oral once daily): ≤ 4 h
intensity of diarrhea (grade) (obese male subjects; obese males, did not worsen with increasing dose): grade 1 or 2
